Experimental data: patent US8841413B2, “Antidiabetic compounds” (Cadila Healthcare Limited, priority 2006, dated 2014)

How the values were obtained:
[1] = system: C57BL/6J mice; assay: Acute single dose 120-min time-course experiment, in vivo glucose reduction in C57BL/6J mice; set-up: unit not given here; settings: male C57BL/6J mice, Mean ± SEM
Method: All the animal experiments were carried out according to the internationally valid guidelines following approval by the ‘Zydus Research Center animal ethical committee’. […] Two days prior to the study, the animals were randomised and divided into 5 groups (n=6), based upon their fed glucose levels. On the day of experiment, food was withdrawn from all the cages, water was given ad-libitum and were kept for overnight fasting. Vehicle (normal saline)/test/standard compounds were administered intraperitoneally (i.p.) or orally, on a body weight basis. […] Blood samples were centrifuged and the separated serum was immediately subjected for the glucose estimation. Serum for insulin estimation was stored at −70° C. until used for the insulin estimation. The glucose estimation was carried out with DPEC-GOD/POD method (Ranbaxy Fine Chemicals Limited, Diagnostic division, India), using Spectramax-190, in 96-microwell plate reader (Molecular devices Corporation, Sunnyvale, Calif.). […] The AUC and BCAUC obtained from graphs were analyzed for one way ANOVA, followed by Dunnett's post test, using Graph Pad prism software. Furthermore, the insulin estimation was carried out using rat/mouse insulin ELISA kit (Linco research, Mo. USA).

[2] = system: db/db mice; assay: In vivo glucose reduction in db/db mice; settings: oral (p.o) administration, FIG. 10
Method: Acute single dose 120-min time-course experiments were carried out in male C57BL/6J or db/db mice, age 8-12 weeks, bred in-house. Animals were housed in groups of 6 animals per cage, for a week, in order to habituate them to vivarium conditions (25±4° C., 60-65% relative humidity, 12:12 h light:dark cycle, with lights on at 7.30 am). All the animal experiments were carried out according to the internationally valid guidelines following approval by the ‘Zydus Research Center animal ethical committee’. […] Two days prior to the study, the animals were randomised and divided into 5 groups (n=6), based upon their fed glucose levels. On the day of experiment, food was withdrawn from all the cages, water was given ad-libitum and were kept for overnight fasting. Vehicle (normal saline)/test/standard compounds were administered intraperitoneally (i.p.) or orally, on a body weight basis. […] The glucose estimation was carried out with DPEC-GOD/POD method (Ranbaxy Fine Chemicals Limited, Diagnostic division, India), using Spectramax-190, in 96-microwell plate reader (Molecular devices Corporation, Sunnyvale, Calif.). […] The AUC and BCAUC obtained from graphs were analyzed for one way ANOVA, followed by Dunnett's post test, using Graph Pad prism software. […]

[3] = system: RIN5F (Rat Insulinoma) cells; assay: In vitro glucose-dependent insulin secretion (RIN5F cell assay); format: cell-based; settings: 16.7 mM glucose load, mean ± S.D., n = 3
[4] = molecular target: T1, human glucagon receptor (Homo sapiens, UniProt P47871); assay: In vitro human glucagon antagonist activity (inhibition of cAMP production), CHO/human glucagon R cells; format: cell-based
T1 construct: The full-length cDNA was cloned in pcDNA3.1(Invitrogen); expressed in transfected cells
T1 sequence (P47871 26-477): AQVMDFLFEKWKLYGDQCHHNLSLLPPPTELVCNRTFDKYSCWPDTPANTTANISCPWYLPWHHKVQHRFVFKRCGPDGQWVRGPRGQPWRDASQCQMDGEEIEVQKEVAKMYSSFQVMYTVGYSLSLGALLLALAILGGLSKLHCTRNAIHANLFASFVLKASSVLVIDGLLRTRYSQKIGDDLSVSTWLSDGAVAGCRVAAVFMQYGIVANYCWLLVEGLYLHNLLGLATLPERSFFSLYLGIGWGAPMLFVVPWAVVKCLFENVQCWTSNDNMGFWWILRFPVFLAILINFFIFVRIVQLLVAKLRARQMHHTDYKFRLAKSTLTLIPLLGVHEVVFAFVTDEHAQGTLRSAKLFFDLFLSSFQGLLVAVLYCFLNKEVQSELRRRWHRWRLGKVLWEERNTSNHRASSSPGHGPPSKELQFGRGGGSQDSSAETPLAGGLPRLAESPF

[5] = molecular target: DPP IV (Homo sapiens, UniProt P27487); assay: Stability against DPP IV enzyme; format: in vitro ADME
Chain of DPP IV (P27487 whole entry, species assumed): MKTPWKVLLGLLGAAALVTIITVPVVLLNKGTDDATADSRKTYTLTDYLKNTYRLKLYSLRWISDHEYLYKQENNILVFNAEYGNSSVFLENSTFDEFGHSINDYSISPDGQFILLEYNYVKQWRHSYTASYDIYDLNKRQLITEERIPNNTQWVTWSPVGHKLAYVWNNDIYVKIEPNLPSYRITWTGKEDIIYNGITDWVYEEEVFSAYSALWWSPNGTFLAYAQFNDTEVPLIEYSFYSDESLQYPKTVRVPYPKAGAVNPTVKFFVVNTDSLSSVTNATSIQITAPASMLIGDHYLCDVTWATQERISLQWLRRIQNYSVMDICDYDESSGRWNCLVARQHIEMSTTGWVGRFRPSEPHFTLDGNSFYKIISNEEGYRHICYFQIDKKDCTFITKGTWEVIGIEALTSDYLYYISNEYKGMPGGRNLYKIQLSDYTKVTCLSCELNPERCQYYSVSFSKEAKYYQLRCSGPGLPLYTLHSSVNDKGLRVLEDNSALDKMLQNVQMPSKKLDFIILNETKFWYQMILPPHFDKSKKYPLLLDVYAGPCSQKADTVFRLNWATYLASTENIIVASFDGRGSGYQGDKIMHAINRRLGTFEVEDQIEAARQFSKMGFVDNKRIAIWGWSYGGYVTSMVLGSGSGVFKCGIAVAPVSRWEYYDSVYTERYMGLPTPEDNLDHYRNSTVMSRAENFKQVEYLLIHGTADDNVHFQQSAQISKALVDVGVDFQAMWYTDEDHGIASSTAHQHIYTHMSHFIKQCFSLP
Method in brief: (§1)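 Reactions were stopped with 10% (v/v) TFA/H2O, then analysed by HPLC on a column equilibrated in TFA/H2O at 1 mL/min. Absorbance was read at 206 nm by UV, and peaks were collected manually for ESI-MS identification.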

[6] = Stability in human plasma; format: in vitro ADME
Method in brief: as §1

[7] = Stability in simulated gastric fluid; format: in vitro ADME; settings: 2 μM, 37° C., pH 1.5, pepsin
Method in brief: as §1

[8] = Stability in simulated intestinal fluid; format: in vitro ADME; settings: 2 μM, 37° C., pH 7.5
Method in brief: as §1

[9] = Stability against liver microsomes; format: in vitro ADME, human
Method in brief: as §1

CCc1cc(OC)ccc1-c1ccc(CC(NC(=O)[C@H](CC(=O)O)NC(=O)[C@H](CO)NC(=O)[C@@H](NC(=O)C(C)(Cc2ccccc2F)NC(=O)[C@@H](NC(=O)CNC(=O)[C@H](CCC(N)=O)NC(=O)C(C)(C)NC(=O)[C@@H](N)Cc2c[nH]cn2)[C@@H](C)O)[C@@H](C)O)C(=O)NC(Cc2ccc(-c3ccccc3C(F)(F)F)cc2)C(N)=O)cc1 (single isomer, unassigned) [Seq. ID. No. 32, H-Aib-QGT-(α-Me-2F-Phe)-TSD-Bip(OMe)-Bip(2CF3)]
blood glucose level ([1]; 10 nM/kg, i.p, 0 min): 182 ± 2.3 | blood glucose level ([1]; 10 nM/kg, i.p, 30 min): 110 ± 2.3 | blood glucose level ([1]; 10 nM/kg, i.p, 60 min): 112 ± 3.0 | blood glucose level ([1]; 10 nM/kg, i.p, 120 min): 112 ± 1.9 | blood glucose level ([1]; 2 μM/kg, oral, 0 min): 181 ± 2.5 | blood glucose level ([1]; 2 μM/kg, oral, 30 min): 117 ± 3.3 | blood glucose level ([1]; 2 μM/kg, oral, 60 min): 112 ± 4.0 | blood glucose level ([1]; 2 μM/kg, oral, 120 min): 108 ± 2.9 | in vivo glucose reduction (in words) [2]: glucose reduction

CCc1cc(OC)ccc1-c1ccc(CC(NC(=O)[C@H](CC(=O)O)NC(=O)[C@H](CO)NC(=O)[C@@H](NC(=O)C(C)(Cc2ccccc2F)NC(=O)[C@@H](NC(=O)CNC(=O)[C@H](CCC(N)=O)NC(=O)[C@H](CO)NC(=O)[C@@H](N)Cc2c[nH]cn2)[C@@H](C)O)[C@@H](C)O)C(=O)NC(Cc2ccc(-c3ccccc3C)nc2)C(N)=O)cc1 (single isomer, unassigned) [compound 22]
Insulin secretion ([3]; 0.1 nM test compd.): 12.1 ± 0.42 pg/µg/h | Insulin secretion ([3]; 1 nM test compd.): 14.6 ± 0.41 pg/µg/h | Insulin secretion ([3]; 10 nM test compd.): 27.8 ± 0.46 pg/µg/h | Human Glucagon receptor antagonistic activity, inhibition of cAMP production of Glucagon peptide ([4]; 1 nM test compound (fourth concentration column, between 100 nM and 10 μM) with saturated concentration of glucagon peptide): 18 ± 0.03 pmol/ml/μg prt | Human Glucagon receptor antagonistic activity, inhibition of cAMP production of Glucagon peptide ([4]; 1 nM test compound with saturated concentration of glucagon peptide): 21 ± 0.11 pmol/ml/μg prt | Human Glucagon receptor antagonistic activity, inhibition of cAMP production of Glucagon peptide ([4]; 10 nM test compound with saturated concentration of glucagon peptide): 19 ± 0.02 pmol/ml/μg prt | Human Glucagon receptor antagonistic activity, inhibition of cAMP production of Glucagon peptide ([4]; 100 nM test compound with saturated concentration of glucagon peptide): 18 ± 0.07 pmol/ml/μg prt | Human Glucagon receptor antagonistic activity, inhibition of cAMP production of Glucagon peptide ([4]; 10 μM test compound with saturated concentration of glucagon peptide): 16 ± 0.02 pmol/ml/μg prt | % degradation in 24 h when incubated with DPP-IV enzyme ([5]; 2 μM, 37° C., 24 h): 75% | half-life at 2 μM ([5]; DPP IV enzyme, pH 7.8, 37° C., read-out: half-life (t1/2) with DPP-IV enzyme): 9 h | % degradation in 24 h when incubated with human plasma ([6]; 2 μM, 37° C., 24 h): 77% | half-life at 2 μM ([6]; human, pooled human plasma, pH 7.8, 37° C., read-out: half-life (t1/2) in human plasma): 8 h | % degradation in 24 h when incubated with simulated gastric fluid ([7]; 24 h): 14% | half-life (t1/2) in simulated gastric fluid [7]: (8) h | % degradation in 24 h when incubated with simulated intestinal fluid ([8]; 24 h): 45% | half-life (t1/2) in simulated intestinal fluid [8]: (6) h | % degradation in 24 h when incubated with liver microsomes ([9]; 2 μM, 37° C., 24 h): 81% | half-life at 2 μM ([9]; human, human liver microsomes, pH 7.8, 37° C., read-out: half-life (t1/2) with liver microsomes): 1 h
